Measurements: EPA's CvTdb concentration-time database

Assays:
Assay in all cases: concentration in plasma after dosing
Rat [1] = settings: 2 h; dosed: Oxymetholone; 120 mg/kg; oral; Female; F344/N
Rat [2] = settings: 1 h; dosed: Oxymetholone; 20 mg/kg; iv; Male; F344/N
Rat [3] = settings: 6 h; dosed: Oxymetholone; 120 mg/kg; oral; Male; F344/N
Rat [4] = settings: 0.5 h; dosed: Oxymetholone; 20 mg/kg; iv; Male; F344/N
Rat [5] = settings: 8 h; dosed: Oxymetholone; 120 mg/kg; oral; Male; F344/N
Rat [6] = settings: 10 min; dosed: Oxymetholone; 120 mg/kg; oral; Male; F344/N
Rat [7] = settings: 3 h; dosed: Oxymetholone; 120 mg/kg; oral; Male; F344/N
Rat [8] = settings: 2 h; dosed: Oxymetholone; 120 mg/kg; oral; Male; F344/N
Rat [9] = settings: 2 h; dosed: Oxymetholone; 20 mg/kg; iv; Male; F344/N
Rat [10] = settings: 4 h; dosed: Oxymetholone; 30 mg/kg; oral; Male; F344/N
Rat [11] = settings: 1 h; dosed: Oxymetholone; 120 mg/kg; oral; Male; F344/N
Rat [12] = settings: 3 h; dosed: Oxymetholone; 120 mg/kg; oral; Male; F344/N; remark: listed apart in the source
Rat [13] = settings: 0.5 h; dosed: Oxymetholone; 20 mg/kg; iv; Male; F344/N; remark: listed apart in the source
Rat [14] = settings: 2 h; dosed: Oxymetholone; 30 mg/kg; oral; Female; F344/N
Rat [15] = settings: 40 min; dosed: Oxymetholone; 30 mg/kg; oral; Male; F344/N
Rat [16] = settings: 5 min; dosed: Oxymetholone; 20 mg/kg; iv; Male; F344/N
Rat [17] = settings: 10 min; dosed: Oxymetholone; 20 mg/kg; iv; Male; F344/N
Rat [18] = settings: 40 min; dosed: Oxymetholone; 120 mg/kg; oral; Male; F344/N
Rat [19] = settings: 5 h; dosed: Oxymetholone; 120 mg/kg; oral; Male; F344/N
Rat [20] = settings: 1 h; dosed: Oxymetholone; 20 mg/kg; iv; Male; F344/N; remark: listed apart in the source
Rat [21] = settings: 1 h; dosed: Oxymetholone; 120 mg/kg; oral; Male; F344/N; remark: listed apart in the source
Rat [22] = settings: 2 h; dosed: Oxymetholone; 30 mg/kg; oral; Male; F344/N
Rat [23] = settings: 2 h; dosed: Oxymetholone; 120 mg/kg; oral; Male; F344/N; remark: listed apart in the source
Rat [24] = settings: F344/N
Rat [25] = settings: 4 h; dosed: Oxymetholone; 20 mg/kg; iv; Male; F344/N
Rat [26] = settings: 20 min; dosed: Oxymetholone; 20 mg/kg; iv; Male; F344/N
Rat [27] = settings: 4 h; dosed: Oxymetholone; 30 mg/kg; oral; Male; F344/N; remark: listed apart in the source
Rat [28] = settings: 20 min; dosed: Oxymetholone; 20 mg/kg; iv; Male; F344/N; remark: listed apart in the source
Rat [29] = settings: 40 min; dosed: Oxymetholone; 30 mg/kg; oral; Male; F344/N; remark: listed apart in the source
Rat [30] = settings: 4 h; dosed: Oxymetholone; 120 mg/kg; oral; Male; F344/N
Rat [31] = settings: 10 min; dosed: Oxymetholone; 120 mg/kg; oral; Male; F344/N; remark: listed apart in the source
Rat [32] = settings: 40 min; dosed: Oxymetholone; 120 mg/kg; oral; Male; F344/N; remark: listed apart in the source
Rat [33] = settings: 2 h; dosed: Oxymetholone; 30 mg/kg; oral; Female; F344/N; remark: listed apart in the source
Rat [34] = settings: 5 min; dosed: Oxymetholone; 20 mg/kg; iv; Male; F344/N; remark: listed apart in the source
Rat [35] = settings: 2 h; dosed: Oxymetholone; 30 mg/kg; oral; Male; F344/N; remark: listed apart in the source
Rat [36] = settings: 2 h; dosed: Oxymetholone; 120 mg/kg; oral; Female; F344/N; remark: listed apart in the source
Rat [37] = settings: 12 h; dosed: Oxymetholone; 120 mg/kg; oral; Male; F344/N
Rat [38] = settings: 2 h; dosed: Oxymetholone; 20 mg/kg; iv; Male; F344/N; remark: listed apart in the source
Rat [39] = settings: 8 h; dosed: Oxymetholone; 120 mg/kg; oral; Male; F344/N; remark: listed apart in the source
Rat [40] = settings: 10 min; dosed: Oxymetholone; 20 mg/kg; iv; Male; F344/N; remark: listed apart in the source
Rat [41] = settings: dosed: Emodin, 5 mg/kg, iv, Female, F344/N
Rat [42] = settings: 6 h; dosed: Emodin; 80 mg/kg; oral; Female; F344/N
Rat [43] = settings: dosed: Emodin, 80 mg/kg, oral, Female, F344/N
Rat [44] = settings: 5 min; dosed: Emodin; 5 mg/kg; iv; Male; F344/N
Rat [45] = settings: 9 h; dosed: Emodin; 80 mg/kg; oral; Male; F344/N
Rat [46] = settings: 10 min; dosed: Emodin; 5 mg/kg; iv; Male; F344/N
Rat [47] = settings: 6 h; dosed: Emodin; 80 mg/kg; oral; Female; F344/N; remark: listed apart in the source
Rat [48] = settings: 5 min; dosed: Emodin; 5 mg/kg; iv; Male; F344/N; remark: listed apart in the source
Rat [49] = settings: 20 min; dosed: Emodin; 5 mg/kg; iv; Male; F344/N
Rat [50] = settings: 9 h; dosed: Emodin; 80 mg/kg; oral; Female; F344/N
Rat [51] = settings: dosed: Emodin, 5 mg/kg, iv, Male, F344/N
Rat [52] = settings: dosed: Emodin, 5 mg/kg, iv, Female, F344/N; remark: listed apart in the source
Rat [53] = settings: 12 h; dosed: Emodin; 80 mg/kg; oral; Male; F344/N
Rat [54] = settings: 40 min; dosed: Emodin; 5 mg/kg; iv; Male; F344/N
Rat [55] = settings: 10 min; dosed: Emodin; 5 mg/kg; iv; Female; F344/N
Rat [56] = settings: 9 h; dosed: Emodin; 80 mg/kg; oral; Female; F344/N; remark: listed apart in the source
Rat [57] = settings: 6 h; dosed: Emodin; 80 mg/kg; oral; Male; F344/N
Rat [58] = settings: 9 h; dosed: Emodin; 80 mg/kg; oral; Male; F344/N; remark: listed apart in the source
Rat [59] = settings: 10 min; dosed: Emodin; 5 mg/kg; iv; Male; F344/N; remark: listed apart in the source
Rat [60] = settings: dosed: Emodin, 5 mg/kg, iv, Male, F344/N; remark: listed apart in the source
Rat [61] = settings: dosed: Emodin, 5 mg/kg, iv, Female, F344/N; remark: listed apart in the source
Rat [62] = settings: 40 min; dosed: Emodin; 5 mg/kg; iv; Female; F344/N
Rat [63] = settings: 20 min; dosed: Emodin; 5 mg/kg; iv; Male; F344/N; remark: listed apart in the source
Rat [64] = settings: 40 min; dosed: Emodin; 5 mg/kg; iv; Male; F344/N; remark: listed apart in the source
Rat [65] = settings: 20 min; dosed: Emodin; 5 mg/kg; iv; Female; F344/N
Rat [66] = settings: 40 min; dosed: Emodin; 5 mg/kg; iv; Female; F344/N; remark: listed apart in the source
Rat [67] = settings: dosed: Emodin, 80 mg/kg, oral, Female, F344/N; remark: listed apart in the source
Rat [68] = settings: 10 min; dosed: Emodin; 5 mg/kg; iv; Female; F344/N; remark: listed apart in the source
Rat [69] = settings: dosed: Emodin, 5 mg/kg, iv, Female, F344/N; remark: listed apart in the source
Rat [70] = settings: 20 min; dosed: Emodin; 5 mg/kg; iv; Female; F344/N; remark: listed apart in the source

C[C@]12C/C(=C/O)C(=O)C[C@@H]1CC[C@@H]1[C@@H]2CC[C@@]2(C)[C@H]1CC[C@]2(C)O [Oxymetholone]
Settings	concentration in plasma [ng/mL]
Rat [1]	918
Rat [2]	1490
Rat [3]	462
Rat [4]	2190
Rat [5]	203
Rat [6]	319
Rat [7]	1070
Rat [8]	1610
Rat [9]	846
Rat [10]	466
Rat [11]	952
Rat [12]	1080
Rat [13]	1720
Rat [14]	276
Rat [15]	629
Rat [16]	20300
Rat [17]	6510
Rat [18]	675
Rat [19]	600
Rat [20]	881
Rat [21]	739
Rat [22]	711
Rat [23]	1330
Rat [25]	376
Rat [26]	3010
Rat [27]	316
Rat [28]	2210
Rat [29]	641
Rat [30]	910
Rat [31]	666
Rat [32]	733
Rat [33]	231
Rat [34]	14400
Rat [35]	875
Rat [36]	1020
Rat [37]	255
Rat [38]	914
Rat [39]	339
Rat [40]	8040

concentration in plasma [ng/mL], Rat [24], dosed: Oxymetholone
Settings	Female	Male
0.5 h, 20 mg/kg, iv	–	2070
1 h, 20 mg/kg, iv	–	1210
1 h, 120 mg/kg, oral	–	999
1.5 h, 120 mg/kg, oral	–	616
2 h, 20 mg/kg, iv	–	619
2 h, 30 mg/kg, oral	266	875
2 h, 120 mg/kg, oral	687	1130
3 h, 120 mg/kg, oral	–	925
4 h, 20 mg/kg, iv	–	496
4 h, 30 mg/kg, oral	–	427
4 h, 120 mg/kg, oral	–	977
5 h, 120 mg/kg, oral	–	527
5 min, 20 mg/kg, iv	–	20600
6 h, 120 mg/kg, oral	–	806
8 h, 120 mg/kg, oral	–	428
10 min, 20 mg/kg, iv	–	5510
10 min, 120 mg/kg, oral	–	626
12 h, 120 mg/kg, oral	–	208
20 min, 20 mg/kg, iv	–	4270
20 min, 120 mg/kg, oral	–	788
40 min, 30 mg/kg, oral	–	564
40 min, 120 mg/kg, oral	–	684

Cc1cc(O)c2c(c1)C(=O)c1cc(O)cc(O)c1C2=O [Emodin]
Settings	concentration in plasma [ng/mL]
Rat [41], 1 h	163
Rat [41], 2 min	5990
Rat [43], 3 h	136
Rat [43], 12 h	175
Rat [51], 1 h	229
Rat [51], 2 min	10500
Rat [52], 1.5 h	151
Rat [52], 5 min	5160
Rat [60], 1 h	219
Rat [60], 2 min	8580
Rat [61], 1.5 h	128
Rat [61], 5 min	4780
Rat [67], 3 h	255
Rat [67], 12 h	184
Rat [69], 1 h	158
Rat [69], 2 min	6490

Settings	concentration in plasma [ng/mL]
Rat [42]	165
Rat [44]	8480
Rat [45]	153
Rat [46]	7370
Rat [47]	151
Rat [48]	8390
Rat [49]	4360
Rat [50]	232
Rat [53]	110
Rat [54]	2200
Rat [55]	2260
Rat [56]	198
Rat [57]	108
Rat [58]	155
Rat [59]	6180
Rat [62]	928
Rat [63]	5930
Rat [64]	1700
Rat [65]	1190
Rat [66]	963
Rat [68]	3010
Rat [70]	794

concentration in plasma [ng/mL], Rat [24], dosed: Emodin
Settings	Female	Male
1 h, 5 mg/kg, iv	256	205
1.5 h, 5 mg/kg, iv	119	–
1.5 h, 80 mg/kg, oral	136	–
2 min, 5 mg/kg, iv	4970	8380
3 h, 80 mg/kg, oral	115	–
5 min, 5 mg/kg, iv	3040	7820
6 h, 40 mg/kg, oral	114	–
6 h, 80 mg/kg, oral	143	159
8 h, 40 mg/kg, oral	111	–
9 h, 80 mg/kg, oral	269	126
10 min, 5 mg/kg, iv	1650	4660
12 h, 80 mg/kg, oral	167	116
20 min, 5 mg/kg, iv	2400	4970
40 min, 5 mg/kg, iv	740	1980
